What all share (test): inhibition of tumour cell growth, NCI panel, 48 h
In assay [1] the test system is SK-MEL-28 melanoma.
Assay [2] deals with IGROV1 ovarian.
Assay [3] relates to MOLT-4 leukemia.
Assay [4] relates to SF-539 CNS.
Assay [5] relates to K-562 leukemia.
Assay [6] has as its system UACC-257 melanoma.
The test system of assay [7] is U251 CNS.
For assay [8], the system named is NCI-H23 lung.
The test system of assay [9] is HT29 colon.
Assay [10] relates to UACC-62 melanoma.

Values joined by “and” are separate entries in the source; they are usually repeats but may differ in a detail not shown here. Equal entries are not always repeated.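 Cultured in 96-well plates, cells were exposed to test compound for 48 hours across five concentrations. Here, GI50 denotes the concentration required for 50% inhibition of growth. TGI denotes the concentration required for complete inhibition of growth.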 Some results are limits rather than exact numbers.

On to `CC1c2c(Cl)nc3ccccc3c2Oc2c1c(Cl)nc1ccccc21`, for which the TGI in assay [1], in assay [2], in [3], in [4], in assay [5] and in [6] was more than 100 µM each time. The TGI in assay [7], in assay [8] and in assay [9] was more than 100 µM each time.

Take `O=C(Nc1ccncc1)C(=O)c1cn(S(=O)(=O)c2ccc(F)cc2)c2ccccc12`: the GI50 was 6.82 µM in assay [1]; 3.4 µM in assay [10]; 4.23 µM in [2]; 5.22 µM in assay [3]; 2.1 µM in assay [4]; 11.7 µM in assay [6]. In addition, the values for the GI50 in [7], in assay [8] and in assay [9] were 3.48 µM, 2.54 µM and 1.88 µM, respectively. Moreover, the TGI was 36.2 µM in [1]; more than 100 µM in [10]; more than 100 µM in [2]; more than 100 µM in [3]; 53.7 µM in [4]; more than 100 µM in assay [6]. Moreover, the TGI in assay [7], in assay [8] and in [9] was more than 100 µM in each case.

For the molecule `CN(C)CC[PH+](c1ccccc1)c1ccccc1.CN(C)CC[PH+](c1ccccc1)c1ccccc1.[Cl-].[Pd+2]`, the GI50 in assay [1] is more than 100 µM; in assay [10], more than 100 µM; in [2], more than 100 µM; in [4], more than 100 µM; in [5], 27800 nM; in [6] it was more than 100 µM. Also, the GI50 in [7], in assay [8] and in assay [9] was more than 100 µM in each case. The TGI in [1], in assay [10], in assay [2], in [4], in [5] and in [6] was more than 100 µM each time. For the same molecule, the TGI in assay [7], in assay [8] and in assay [9] was more than 100 µM in each case.

For `Cc1c2c(C#N)nccc2c(C)c2c1c1ccccc1n2Cc1ccccc1`, the TGI in assay [1], in assay [10], in [2], in [4], in assay [5] and in assay [6] was more than 100 µM in each case. The TGI in assay [7], in assay [8] and in [9] was more than 100 µM in each case.

Turning to `O=C1/C(=C/c2ccc(Cl)cc2)CCC1CCN1CCOCC1` (stereo not given), the TGI was more than 100 µM in [1]; more than 100 µM in [10]; more than 100 µM in [2]; 82.6 µM in assay [3]; more than 100 µM in assay [4]; more than 100 µM in [5]. Moreover, the TGI in assay [6], in assay [8] and in [9] was more than 100 µM throughout.

`C#C[C@]1(O)CCC2C3CCc4cc(O)ccc4C3CC[C@@]21C` (stereo not given in full): the GI50 in [1] is 5.85 µM; in [10], 4.12 µM; in [2], 11.2 µM; in [3], 3.65 µM; in assay [4], 4 µM; in [6], 10.4 µM. Besides, the values for the GI50 in [7], in [8] and in [9] were 4.09 µM, 4.7 µM and 3.65 µM, respectively. Moreover, the TGI in assay [1] worked out at 19.7 µM; in [10], 22.8 µM; in [2], 52.4 µM; in assay [3] it was 26.3 µM; in assay [4], 14.7 µM; in assay [6], 41.4 µM. Besides, the TGI is 17.5 µM in assay [7], 25.7 µM in assay [8] and 18.6 µM in assay [9].

In the case of `N#C/C1=C(\N)CCSSSC1`, the TGI in assay [1], in assay [2], in assay [3], in assay [4], in assay [5] and in assay [6] was more than 100 µM throughout. Besides, the TGI in assay [7], in assay [8] and in assay [9] was more than 100 µM in each case.

Take `C=C(C)[C@@H]1CC[C@]2(C)[C@H](CC=C3[C@@H]4CC(C)(C)CC[C@]4(C(N)=O)CC[C@]32C)[C@@]1(C)CCC#N`: the GI50 in assay [1] is 4.17 µM; in assay [10] it was 2.59 µM; in assay [2] it was 3.92 µM; in assay [4] it was 3.04 µM; in [5], 2540 nM; in [6] it was 4.09 µM. Besides, the GI50 in [7] was 4.35 µM; in assay [8], 3.66 µM; in [9], 3.48 µM. The TGI in [1] was more than 100 µM; in [10], 9.15 µM; in [2], more than 100 µM; in [4], 13.6 µM; in assay [5], more than 100 µM; in [6], more than 100 µM. Moreover, the TGI in assay [7], in [8] and in [9] was more than 100 µM throughout.

For `[N-]=[N+]=N[C@H]1C[C@@H](CO)O[C@H]1n1cnc2c(N)ncnc21`, the TGI in [1], in [4], in assay [6], in assay [7], in [8] and in assay [9] was more than 100 µM each time.

`COc1cccc(C2=NC(C(C)C)CO2)c1` (stereo not given): the TGI in assay [1], in [10], in assay [2], in assay [3], in assay [4] and in assay [5] was more than 100 µM each time. Moreover, the TGI in assay [6], in assay [8] and in assay [9] was more than 100 µM each time.

For `Cc1[nH]c2ccccc2c1C(=O)/C=C/c1ccccc1O`, the TGI in assay [1], in assay [10], in [2], in assay [3], in [5] and in assay [6] was more than 100 µM in each case. Moreover, the TGI in [7], in [8] and in assay [9] was more than 100 µM in each case.

Consider `O=C(Nc1nc(=S)c2c(ncn2CCOC(=O)c2ccccc2)[nH]1)c1ccccc1`, for which the TGI in assay [1] was more than 100 µM; in assay [10], more than 100 µM; in [2] it was more than 100 µM; in [4], 94.3 µM; in assay [5] it was more than 100 µM; in [6], more than 100 µM. The TGI in assay [7] and in assay [9] was more than 100 µM in each case.

Take `COC1(OC)C(N(C)C)=C(Cl)C(=O)/C1=C/C=O`: the TGI in [1], in [10], in assay [2], in assay [3], in [5] and in assay [6] was more than 100 µM throughout. Moreover, the TGI in [7], in assay [8] and in [9] was more than 100 µM each time.

In the case of `O=C1C=CC(=O)c2cc3cc(CBr)ccc3cc21`, the GI50 in [1] was 7.31 µM; in assay [10], 5.61 µM; in assay [2], 7.75 µM; in [5], 339 nM; in [6] it was 56.9 µM; in assay [7], 14.4 µM. Also, the GI50 in [8] is 9.84 µM; in [9] it was 2.62 µM. Further, the TGI in assay [1] is more than 63.1 µM; in [10], 15.6 µM; in [2], more than 73.9 µM; in assay [5], 6.03 µM; in assay [6], more than 100 µM; in assay [7], 36.2 µM. Further, the TGI in assay [8] was 30.8 µM; in assay [9], more than 100 µM.

Turning to `CC1CN(C(=O)CN2CCC(CCCCN(C)C)CC2)c2ccccc2NC1=O` (stereo not given), the TGI in [1], in [10], in assay [2], in assay [3], in [5] and in assay [6] was more than 100 µM throughout. For the same molecule, the TGI in assay [7], in assay [8] and in assay [9] was more than 100 µM throughout.

For `CCCC(=O)Nc1cc2c3c(c1)CCCN3CCC2`, the TGI in assay [1], in [10], in [2], in assay [4], in assay [5] and in assay [6] was more than 10 µM throughout. The TGI in assay [7], in assay [8] and in assay [9] was more than 10 µM each time.

On to `O=C1/C(=C/c2ccc3c(c2)OCO3)SC2C=Nc3ccccc3N12` (stereo not given), for which the TGI in [1], in assay [10], in assay [2], in [3], in [4] and in assay [6] was more than 100 µM throughout. Moreover, the TGI in [7], in assay [8] and in assay [9] was more than 100 µM each time.

Turning to `COc1cc(NCc2ccc3nc(N)nc(N)c3c2C)cc(OC)c1OC` (tested in a mixture with another compound), the TGI in [1] was 50.6 µM; in assay [2], 68.6 µM; in assay [3], 46.7 µM; in [5] it was 46.3 µM; in [6], 48.7 µM; in assay [7], 88.5 µM and 48.7 µM. Also, the TGI in assay [9] is 41.9 µM. In addition, the GI50 is 0.159 nM in assay [5]; 0.00993 µM in assay [6]; 0.00227 µM and 0.016 µM in assay [7].

Consider `CCOc1ccc(NC(=O)CC#N)cc1`, for which the TGI in assay [1], in assay [10], in assay [2], in assay [3], in assay [5] and in [6] was more than 100 µM each time. For the same molecule, the TGI in assay [7], in assay [8] and in assay [9] was more than 100 µM in each case.

In the case of `CCOC(=O)C(=[N+]=[N-])[Si](C)(C)C`, the TGI was 45.6 µM in assay [1]; more than 100 µM in assay [10]; more than 100 µM in assay [2]; more than 100 µM in [4]; more than 100 µM in assay [6]; 69.2 µM in assay [7]. Also, the TGI in assay [8] and in [9] was more than 100 µM in each case.

Regarding `O=C(O)Cc1cc(Cl)ccc1O`, the TGI in assay [1], in assay [10], in [2], in assay [4], in assay [5] and in assay [6] was more than 100 µM throughout. The TGI in assay [7], in [8] and in assay [9] was more than 100 µM each time.

On to `C1=CC(N(c2ccccc2)C2C=CCCC2)CCC1` (stereo not given), for which the TGI in assay [1], in [10], in assay [2], in assay [4], in [5] and in assay [7] was more than 100 µM throughout. Also, the TGI in assay [8] and in [9] was more than 100 µM each time.

For the molecule `CN=C1CC2c3cc(OC)c(OC)cc3CCN2C2=C1C(=O)CC(C)(C)C2` (stereo not given), the TGI in assay [1], in assay [3], in assay [4], in assay [6], in assay [7] and in [8] was more than 100 µM in each case. Also, the TGI in assay [9] was more than 100 µM.

With `Cc1cc(N(CCC#N)CCC#N)ccc1N=Nc1ccc(C(=O)O)cc1`, the TGI in [1], in [10], in assay [2], in assay [3], in [4] and in [6] was more than 100 µM throughout. In addition, the TGI in assay [7], in assay [8] and in assay [9] was more than 100 µM each time.

With `O=C(CSc1nc2ccccc2nc1-c1ccccc1)Nc1ccc(F)cc1`, the GI50 in assay [1] was 63.9 µM; in assay [10], 48.5 µM; in assay [2], 42.4 µM; in assay [4] it was 18.6 µM; in [5] it was 30800 nM; in assay [6], 92.8 µM. Also, the GI50 in [7] is 38.8 µM; in assay [8] it was 69.7 µM; in [9] it was 21.5 µM. Further, the TGI is more than 100 µM in [1]; more than 100 µM in assay [10]; more than 100 µM in assay [2]; 35.4 µM in assay [4]; more than 100 µM in [5]; more than 100 µM in [6]. Besides, the TGI in assay [7] was more than 100 µM; in assay [8], more than 100 µM; in assay [9], 96.5 µM.

Source of the values: PubChem BioAssay (NCI).
